Data: patent US20230312550A1, “N-(2-(4-CYANOTHIAZOLIDIN-3-YL)-2-OXOETHYL)-QUINOLINE-4-CARBOXAMIDES” (AstraZeneca AB, priority 2020, published 2023)
In brackets after ≈: the same amount, converted by molar mass.

Experiments:
[1] = target: Prolyl endopeptidase, Prolyl Oligopeptidase (hPREP) (Homo sapiens (Human), UniProt P48147); test: hPrep inhibition assay; assay type: biochemical; settings: hPREP 0.6 nM, Z-Gly-Pro-amino-methylcoumarin 50 μM; read-out: PREP IC50
Procedure, shortened: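 Recombinant human PREP at 0.6 nM final with Z-Gly-Pro-AMC substrate at 50 μM final in Tris-HCl pH 7.5, NaCl, Triton X-100, glutathione; 15 min rt preincubation then 20 min rt reaction in dark. AMC fluorescence (ex 340/em 460 nm); IC50 from one-site dose-response fit of % inhibition.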

hFAP (M39-A757) = hFAP (M39-A757) (Homo sapiens (Human), UniProt Q12884); test: hFAP binding assay (surface plasmon resonance); settings: SPR, 20° C.; for hFAP Binding assay k(off) / hFAP Binding assay k(on): single cycle kinetics; for Kd: n = 1 or geometric mean n = 2-4
[2] = target: human Fibroblast activation protein alpha (hFAP) (Homo sapiens (Human), UniProt Q12884); test: hFAP inhibition assay (tight binders); assay type: biochemical; settings: Ala-Pro-AMC 20 μM, n = 1 or geometric mean n = 2-6; also: hFAP 2.4 pM
Method: The plates were read on a PHERAstar® reader with excitation 340 nm and emission 460 nm. Data were analyzed in Genedata Screener®. IC50 values were determined by plotting % inhibition versus log compound concentration and using a one site dose response model.

[3] = Metabolic stability in human liver microsomes (HLM); settings: human
Method: Metabolic stability in HLM was measured as described in J Comput Aided Mol Des 2015, 29, 795.

Kinetic solubility = settings: kinetic from dmso stock
Method: Kinetic solubility was measured as described in Comput Aided Mol Des 2015, 29, 795.

FAP = FAP (Homo sapiens (Human), UniProt Q12884); test: hFAP inhibition assay; assay type: biochemical; settings: hFAP […], Ala-Pro-AMC 20 μM; n = 1 or geometric mean n = 2-3
Procedure, shortened: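 Human FAP (0.48 nM) in 100 mM Tris HCl, 100 mM NaCl, 0.05% Chaps, pH 7.4 was preincubated 15 min at rt in the dark with compounds (10-point, 3-fold series from 50 μM). Substrate was added from a 40 μM solution, then 30 min at rt. Fluorescence read at ex 340/em 460 nm; IC50 from one-site dose-response fit of % inhibition.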

[4] = Metabolic stability in rat hepatocytes (rHep); settings: n = 1 or geometric mean of n = 2-3
[5] = HLM CLint, n = 1 or average of n = 2-3
[6] = Solubility, kinetic solubility, n = 1 or average of n = 2-3

Chain of Prolyl endopeptidase, Prolyl Oligopeptidase (hPREP) (P48147 whole entry): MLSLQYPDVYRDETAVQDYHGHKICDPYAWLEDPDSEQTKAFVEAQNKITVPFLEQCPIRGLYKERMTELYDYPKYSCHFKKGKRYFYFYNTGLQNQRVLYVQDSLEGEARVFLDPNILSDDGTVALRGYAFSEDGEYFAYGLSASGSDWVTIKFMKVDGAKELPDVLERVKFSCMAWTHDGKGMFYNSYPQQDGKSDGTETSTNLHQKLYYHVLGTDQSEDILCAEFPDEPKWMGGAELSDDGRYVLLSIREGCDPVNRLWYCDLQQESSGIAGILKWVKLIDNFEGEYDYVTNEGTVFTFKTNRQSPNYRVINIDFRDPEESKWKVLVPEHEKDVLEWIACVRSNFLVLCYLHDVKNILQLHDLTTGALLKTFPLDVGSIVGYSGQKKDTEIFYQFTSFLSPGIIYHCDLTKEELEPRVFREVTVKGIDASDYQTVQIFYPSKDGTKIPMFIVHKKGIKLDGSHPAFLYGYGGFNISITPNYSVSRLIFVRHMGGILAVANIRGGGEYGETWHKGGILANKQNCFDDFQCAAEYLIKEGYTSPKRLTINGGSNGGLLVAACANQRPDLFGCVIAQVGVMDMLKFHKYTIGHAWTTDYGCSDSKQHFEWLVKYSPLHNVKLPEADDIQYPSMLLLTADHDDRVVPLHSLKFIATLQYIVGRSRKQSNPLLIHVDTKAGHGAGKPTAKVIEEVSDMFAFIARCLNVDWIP
Chain of human Fibroblast activation protein alpha (hFAP) (Q12884 38-760): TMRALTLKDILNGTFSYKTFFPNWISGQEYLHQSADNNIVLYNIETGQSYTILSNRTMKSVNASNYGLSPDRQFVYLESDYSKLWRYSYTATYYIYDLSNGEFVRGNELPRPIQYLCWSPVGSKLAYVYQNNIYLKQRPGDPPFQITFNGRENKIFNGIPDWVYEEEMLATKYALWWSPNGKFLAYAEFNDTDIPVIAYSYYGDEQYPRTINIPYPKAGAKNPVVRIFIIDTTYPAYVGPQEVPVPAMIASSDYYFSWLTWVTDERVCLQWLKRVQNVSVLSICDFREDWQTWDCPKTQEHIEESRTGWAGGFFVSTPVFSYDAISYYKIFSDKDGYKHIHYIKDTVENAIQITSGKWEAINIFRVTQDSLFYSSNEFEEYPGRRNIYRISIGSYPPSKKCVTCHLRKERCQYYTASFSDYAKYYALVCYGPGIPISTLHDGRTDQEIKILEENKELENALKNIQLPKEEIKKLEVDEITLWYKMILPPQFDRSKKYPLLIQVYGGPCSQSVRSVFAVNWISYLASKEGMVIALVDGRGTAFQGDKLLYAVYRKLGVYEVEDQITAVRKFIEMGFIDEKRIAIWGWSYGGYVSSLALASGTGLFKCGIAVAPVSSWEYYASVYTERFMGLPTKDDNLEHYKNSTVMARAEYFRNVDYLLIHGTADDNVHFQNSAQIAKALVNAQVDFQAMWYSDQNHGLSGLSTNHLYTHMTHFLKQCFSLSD
Chain of FAP (Q12884 38-760): as above
Chain of hFAP (M39-A757) (Q12884 39-757): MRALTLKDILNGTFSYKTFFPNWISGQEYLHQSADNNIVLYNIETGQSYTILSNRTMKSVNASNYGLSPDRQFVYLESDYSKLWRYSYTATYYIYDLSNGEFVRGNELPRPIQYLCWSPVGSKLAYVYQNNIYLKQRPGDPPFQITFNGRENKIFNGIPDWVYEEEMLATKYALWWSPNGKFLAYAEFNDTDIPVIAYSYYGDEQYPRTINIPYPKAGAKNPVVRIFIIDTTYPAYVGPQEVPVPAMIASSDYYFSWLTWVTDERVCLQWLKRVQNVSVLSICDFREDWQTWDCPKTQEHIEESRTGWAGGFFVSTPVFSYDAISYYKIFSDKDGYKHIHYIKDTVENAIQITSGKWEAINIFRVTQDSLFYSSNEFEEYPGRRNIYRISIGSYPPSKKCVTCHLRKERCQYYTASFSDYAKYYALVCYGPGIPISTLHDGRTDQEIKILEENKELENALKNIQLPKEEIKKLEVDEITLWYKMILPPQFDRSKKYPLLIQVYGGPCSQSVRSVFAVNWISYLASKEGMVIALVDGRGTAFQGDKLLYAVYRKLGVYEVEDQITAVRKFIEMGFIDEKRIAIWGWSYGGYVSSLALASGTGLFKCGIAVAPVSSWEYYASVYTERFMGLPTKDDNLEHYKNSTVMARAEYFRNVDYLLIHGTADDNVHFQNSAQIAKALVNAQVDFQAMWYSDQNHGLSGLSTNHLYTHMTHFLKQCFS

IC50 [1] [pM] | hFAP Binding assay k(off) (hFAP (M39-A757)) [s⁻¹] | hFAP Binding assay k(on) (hFAP (M39-A757)) [M⁻¹ s⁻¹] | Kd (hFAP (M39-A757)) [pM] | IC50 [2] [pM] | IC50 (FAP) [pM] | rHep CLint [4] [μL/min/1E6] | microsomal CLint [3, 5] [µL/min/mg] | solubility (Kinetic solubility; [6]) [µM] | Structure (SMILES) | microsomal CLint [3] [µL/min/mg] | solubility (Kinetic solubility) [µM]
260000 | 0.00021 | 1800000 | 110 | 81 | 320 | 10 | 16 | 400 (≈ 161 µg/mL) | N#C[C@@H]1CSCN1C(=O)CNC(=O)c1ccnc2ccc(-c3cccnc3)cc12 [Example 126, (R)—N-(2-(4-Cyanothiazolidin-3-yl)-2-oxoethyl)-6-(pyridin-3-yl)quinoline-4-carboxamide] | – | –
120000 | 0.00014 | 3000000 | 48 | 46 | 210 | 7.4 | 14 | 38 (≈ 16 µg/mL) | N#C[C@@H]1CSCN1C(=O)CNC(=O)c1ccnc2ccc(-c3ccc(F)cn3)cc12 [Example 125, (R)—N-(2-(4-Cyanothiazolidin-3-yl)-2-oxoethyl)-6-(5-fluoropyridin-2-yl)quinoline-4-carboxamide] | – | –
400000 | 0.000090 | 3000000 | 53 | 84 | 240 | 19 | 48 | < 98 | N#C[C@@H]1CSCN1C(=O)CNC(=O)c1ccnc2ccc(N3CCCC(F)(F)C3)cc12 [Example 36, (R)—N-(2-(4-Cyanothiazolidin-3-yl)-2-oxoethyl)-6-(3,3-difluoropiperidin-1-yl)quinoline-4-carboxamide] | – | –
380000 | 0.000025 | 740000 | 34 | 350 | 380 | 2.3 | 8.6 | > 1000 | N#C[C@@H]1CSCN1C(=O)CNC(=O)c1ccnc2ccc(N3CCOCC3)c(Cl)c12 [Example 101, (R)-5-Chloro-N-(2-(4-cyanothiazolidin-3-yl)-2-oxoethyl)-6-morpholino-quinoline-4-carboxamide] | – | –
86000 | 0.00017 | 1700000 | 99 | 140 | 220 | 120 | 210 | 160 (≈ 70.6 µg/mL) | N#C[C@@H]1CSCN1C(=O)CNC(=O)c1ccnc2ccc(N3CCCC[C@H](F)C3)cc12 [Example 60, N-(2-((R)-4-Cyanothiazolidin-3-yl)-2-oxoethyl)-6-((S)-3-fluoroazepan-1-yl)quinoline-4-carboxamide] | – | –
220000 | 0.00011 | 540000 | 140 | 190 | 440 | 160 | > 300 | 5.9 (≈ 2.73 µg/mL) | N#C[C@@H]1CSCN1C(=O)CNC(=O)c1ccnc2ccc(N3CCC[C@H]3C(F)(F)F)cc12 [Example 56, N-(2-((R)-4-Cyanothiazolidin-3-yl)-2-oxoethyl)-6-((S)-2-(trifluoromethyl)-pyrrolidin-1-yl)quinoline-4-carboxamide] | – | –
170000 | 0.000050 | 680000 | 74 | 180 | 270 | 71 | 120 | 2.6 (≈ 1.13 µg/mL) | N#C[C@@H]1CSCN1C(=O)CNC(=O)c1ccnc2ccc(N3CC4CCCC4C3)cc12 (stereo partly drawn) [Example 53, N-(2-((R)-4-Cyanothiazolidin-3-yl)-2-oxoethyl)-6-(hexahydrocyclopenta[c]pyrrol-2(1H)-yl)quinoline-4-carboxamide] | – | –
270000 | 0.000030 | 1000000 | 28 | 190 | 220 | 30 | 66 | 210 (≈ 95.7 µg/mL) | CC1(CF)CCN(c2ccc3nccc(C(=O)NCC(=O)N4CSC[C@H]4C#N)c3c2)CC1 [Example 37, (R)—N-(2-(4-Cyanothiazolidin-3-yl)-2-oxoethyl)-6-(4-(fluoromethyl)-4-methylpiperidin-1-yl)quinoline-4-carboxamide] | – | –
690000 | 0.0004 | 4100000 | 95 | 130 | 240 | 28 | 75 | 700 (≈ 299 µg/mL) | N#C[C@@H]1CSCN1C(=O)CNC(=O)c1ccnc2ccc(N3CCSCC3)cc12 [Example 3, (R)—N-(2-(4-Cyanothiazolidin-3-yl)-2-oxoethyl)-6-thiomorpholinoquinoline-4-carboxamide] | – | –
210000 | 0.000042 | 250000 | 93 | 190 | 410 | 26 | 100 | 230 (≈ 109 µg/mL) | N#C[C@@H]1CSCN1C(=O)CNC(=O)c1ccnc2ccc(N3CC(F)(c4ccccc4)C3)cc12 [Example 182, (R)—N-(2-(4-Cyanothiazolidin-3-yl)-2-oxoethyl)-6-(3-fluoro-3-phenyl-azetidin-1-yl)quinoline-4-carboxamide] | – | –
610000 | 0.00015 | 1300000 | 120 | 85 | 280 | 29 | 56 | 130 (≈ 57.1 µg/mL) | C[C@@H]1CN(c2ccc3nccc(C(=O)NCC(=O)N4CSC[C@H]4C#N)c3c2)CCCO1 [Example 64, N-(2-((R)-4-Cyanothiazolidin-3-yl)-2-oxoethyl)-6-((R)-2-methyl-1,4-oxazepan-4-yl)quinoline-4-carboxamide] | – | –

Structure (SMILES) | IC50 [1] [pM] | hFAP Binding assay k(off) (hFAP (M39-A757)) [s⁻¹] | hFAP Binding assay k(on) (hFAP (M39-A757)) [M⁻¹ s⁻¹] | Kd (hFAP (M39-A757)) [pM] | IC50 [2] [pM] | IC50 (FAP) [pM] | rHep CLint [4] [μL/min/1E6] | microsomal CLint [3, 5] [µL/min/mg] | solubility (Kinetic solubility; [6]) [µM] | microsomal CLint [3] [µL/min/mg] | solubility (Kinetic solubility) [µM]
N#C[C@@H]1CSCN1C(=O)CNC(=O)c1ccnc2ccc(N3CC4(CC4)C[C@@H]3CF)cc12 [Example 58, N-(2-((R)-4-Cyanothiazolidin-3-yl)-2-oxoethyl)-6-((R)-6-(fluoromethyl)-5-azaspiro[2.4]heptan-5-yl)quinoline-4-carboxamide] | 180000 | 0.091 | 8800000000 | 16 | 76 | 230 | 72 | – | – | 140 | 5.8 (≈ 2.63 µg/mL)
N#C[C@@H]1CSCN1C(=O)CNC(=O)c1ccnc2ccc(N3CC4(CCC4)C3)cc12 [Example 17, (R)—N-(2-(4-Cyanothiazolidin-3-yl)-2-oxoethyl)-6-(2-azaspiro[3.3]heptan-2-yl)quinoline-4-carboxamide] | 160000 | 0.00012 | 8300000 | 15 | 85 | 220 | 16 | – | – | 18 | 250 (≈ 105 µg/mL)
N#C[C@@H]1CSCN1C(=O)CNC(=O)c1ccnc2ccc(N3CCC4(CC4)C3)cc12 [Example 49, (R)—N-(2-(4-Cyanothiazolidin-3-yl)-2-oxoethyl)-6-(5-azaspiro[2.4]heptan-5-yl)quinoline-4-carboxamide] | 340000 | 0.00017 | 8800000 | 20 | 41 | 190 | 48 | – | – | 58 | 13 (≈ 5.48 µg/mL)
N#C[C@@H]1CSCN1C(=O)CNC(=O)c1ccnc2ccc(N3CCC34CCC4)cc12 [Example 19, (R)—N-(2-(4-Cyanothiazolidin-3-yl)-2-oxoethyl)-6-(1-azaspiro[3.3]heptan-1-yl)quinoline-4-carboxamide] | 160000 | 0.000066 | 430000 | 150 | 380 | 660 | 63 | – | – | 190 | 480 (≈ 202 µg/mL)
